This is an account of results in patent US20220185822A1, “SELECTIVE LIGANDS OF HUMAN CONSTITUTIVE ANDROSTANE RECEPTOR” (USTAV ORGANICKE CHEMIE A BIOCHEMIE AV CR, V.V.I., priority 2019, published 2022).

One may read the IC50 as the concentration needed to halve the response being measured. One may read the EC50 as the midpoint of the concentration-response curve. Lower therefore signals higher potency in that assay.

SMILES strings stand for the structures. Entries after “also recorded” stand apart in the source; their conditions may differ. Some results are limits rather than exact numbers.

One data set concerns the target T1, farnesoid X receptor (Homo sapiens, UniProt Q96RI1).
T1 construct: luciferase reporter assays with a GAL4 constructs with LBD of tested nuclear receptors; expressed in transfected cells
The data set can be described thus: Luciferase reporter assay with GAL4 construct with LBD, farnesoid X receptor. The settings on record: 10 μM/L. It counts as cell-based. Background: A reporter such as luciferase makes a cellular process visible.

The next data set deals with HepG2 cells. Kind of data set: Cytotoxicity, cell viability (MTS) in HepG2. Format: cell-based. The settings on record: Homo sapiens, 48-h treatment, no significant effect at 30 μM/L. As to the method: (§1) Cell viability in HepG2 and COS-1 cells after a 48 h treatment with test compounds at a concentration from 1 up to 30 μM was determined using the modified formazan-based […] assay. […] Briefly, the cells were treated with the test compounds or vehicle alone (DMSO) for 48 h. At the end of the treatment, 20 μl of MTS reagent was added directly to each culture wells and further cultivated for 1.5 h. Finally, the absorbance of converted formazan was recorded at 490 nm by plate reader (BioTec Synergy 2. Winooski. Vt. USA). Vehicle (DMSO) and TritonX100 (0.9%; v/v) controls of cell viability were set to be 100% and 0%, respectively.

The next data set concerns the target T2, human CAR LBD (Homo sapiens, UniProt Q14994).
T2 construct: C (151-349 aa) and N (103-150 aa) terminal parts of human CAR LBD; N (103-150 aa) terminal parts of human CAR LBD; expressed in transfected cells; host or cells: HepG2
T2 sequence (Q14994 151-348 isoform Q14994-2 limits assumed): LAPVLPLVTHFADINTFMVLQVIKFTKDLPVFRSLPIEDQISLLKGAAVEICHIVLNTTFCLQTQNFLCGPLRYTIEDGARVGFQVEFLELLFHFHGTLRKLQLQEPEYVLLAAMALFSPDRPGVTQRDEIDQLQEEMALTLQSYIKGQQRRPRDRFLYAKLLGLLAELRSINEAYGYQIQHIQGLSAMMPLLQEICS
T2 sequence (Q14994 103-150 isoform Q14994-2 limits assumed): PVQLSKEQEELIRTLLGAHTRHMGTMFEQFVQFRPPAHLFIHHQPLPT
Kind of data set: CAR LBD assembly assay (two hybrid luciferase reporter in HepG2 cells). It counts as cell-based. As for the experimental part: A ligand promotes connection of the two parts of CAR LBD resulting in luciferase transactivation. Luminescence activity in the cell lysate was measured using a commercially available luciferase detection system (Catalog Number E1960, Dual Luciferase Reporter Assay Kit, Promega, Madison, Wis., USA). The data are presented as means and S.D. and expressed as the fold-change of firefly luciferase activity normalized to Renilla luciferase activity in each sample and relative to the vehicle (DMSO 0.1%)-treated controls, which were set at 1.

In data set [1] the test system is CYP2B6 mRNA in HepaRG KO CAR cells. Kind of data set: RT-qPCR of CYP2B6 mRNA in HepaRG KO CAR cells. It counts as cell-based, human. Particulars: 24 h of treatment (FIG. 3). The source says: (§2) Delta-delta method and GAPDH/Gapdh or B2M/B2m housekeeping genes were used for relative quantification. Data are expressed as fold up-/down-regulation compare to vehicle-treated samples/mice.
On the technique in general: Quantitative PCR measures a nucleic acid by following its amplification.

Data set [2] deals with CYP2B6 mRNA (CAR target gene). The data set can be described thus: RT-qPCR of CYP2B6 mRNA in HepaRG cells. It counts as cell-based, human. Particulars: 24 h of treatment (FIG. 3).
From the text: as §2

Data set [3] is described as follows: Repeated Dose 7-day Oral Toxicity Study in Rats. It counts as in vivo. Particulars: 1 and 10 mg/kg. As to the method:
The studies were conducted on female rats.

Data set [4] has as its system CYP3A4, CYP1A2, CYP2C9, CYP2C19, CYP2C8, CYP2D6, CYP2B6 (panel). The data set can be described thus: in vitro. Particulars: both, human, pooled human liver microsomes. Background: Liver microsomes are vesicles of endoplasmic reticulum, rich in cytochrome P450 enzymes.
The next data set has as its system COS-1 cells. Kind of data set: Cytotoxicity, cell viability (MTS) in COS-1. It counts as cell-based, African green monkey. The settings on record: Chlorocebus sabaeus, 48-h treatment, no significant effect at 30 μM/L. As to the method: as §1
A further data set addresses T3, human CYP3A4 (Homo sapiens, UniProt P08684).
T3 construct: purchased Promega V8802
Kind of data set: Commercial CYP450-Glo inhibition assay, CYP3A4. It counts as in vitro ADME.

A short description of data set [5]: Stability in human plasma. It counts as in vitro ADME. The settings on record: over 120 minutes.
The next data set addresses T4, estradion β receptor (Homo sapiens, UniProt Q92731).
T4 construct: luciferase reporter assays with a GAL4 constructs with LBD of tested nuclear receptors; expressed in transfected cells
The data set can be described thus: Luciferase reporter assay with GAL4 construct with LBD, estradion β receptor. It counts as cell-based. Particulars: 10 μM/L.

A short description of data set [6]: Pharmacokinetic studies in mice.
Data set [7] concerns the target T5, human CAR ligand-binding domain (LBD) (Homo sapiens, UniProt Q14994).
T5 construct: purchased ThermoFisher Scientific PV4836
The data set can be described thus: TR-FRET CAR Coactivator Binding Assay (LanthaScreen). Format: biochemical. The source says:
The assay uses two fluorophores: a terbium-labeled anti-GST antibody interacting with glutathione-S-transferase tagged human CAR ligand-binding domain (LBD) and a fluorescein-labeled PGC1α coactivator peptide. […] Values above 1 represent the agonistic activity on CAR with subsequent CAR-PGC1α interaction.

The next data set deals with T6, CAR variant 3 (Homo sapiens, UniProt Q14994, DEL233-236).
T6 construct: expressed in transfected cells; host or cells: HepG2
T6 sequence (Q14994 with tags, fused parts or gaps isoform Q14994-8 DEL233-236): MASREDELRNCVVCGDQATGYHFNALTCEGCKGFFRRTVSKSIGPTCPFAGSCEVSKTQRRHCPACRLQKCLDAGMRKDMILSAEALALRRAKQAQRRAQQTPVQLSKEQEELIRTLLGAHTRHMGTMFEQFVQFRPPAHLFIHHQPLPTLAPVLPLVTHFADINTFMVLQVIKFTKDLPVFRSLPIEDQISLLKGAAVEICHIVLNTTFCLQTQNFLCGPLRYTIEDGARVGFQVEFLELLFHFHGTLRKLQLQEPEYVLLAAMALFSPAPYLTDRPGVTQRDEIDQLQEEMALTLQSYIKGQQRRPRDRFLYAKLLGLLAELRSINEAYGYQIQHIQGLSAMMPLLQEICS
T6 sequence (P19793 1-462 partner): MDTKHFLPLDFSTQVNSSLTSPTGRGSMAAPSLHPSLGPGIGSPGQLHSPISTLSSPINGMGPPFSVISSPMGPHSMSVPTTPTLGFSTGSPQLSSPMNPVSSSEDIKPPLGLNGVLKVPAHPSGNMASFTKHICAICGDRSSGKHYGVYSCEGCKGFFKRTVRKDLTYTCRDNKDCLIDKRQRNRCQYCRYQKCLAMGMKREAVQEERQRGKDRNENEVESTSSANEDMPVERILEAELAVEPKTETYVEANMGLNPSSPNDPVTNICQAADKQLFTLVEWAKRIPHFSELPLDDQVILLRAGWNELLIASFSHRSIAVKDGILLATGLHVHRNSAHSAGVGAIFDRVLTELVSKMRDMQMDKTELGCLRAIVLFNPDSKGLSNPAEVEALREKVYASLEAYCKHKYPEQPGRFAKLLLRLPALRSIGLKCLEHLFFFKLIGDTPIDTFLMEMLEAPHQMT
Kind of data set: Luciferase reporter gene assay with CAR variant 3 in HepG2 cells. Format: cell-based. Particulars: tested at 1 μM; HepG2, 24 h.

Another data set has as its target T7, vitamin D receptor (Homo sapiens, UniProt P11473).
T7 construct: luciferase reporter assays with a GAL4 constructs with LBD of tested nuclear receptors; expressed in transfected cells
Kind of data set: Luciferase reporter assay with GAL4 construct with LBD, vitamin D receptor. Particulars: 10 μM/L. It counts as cell-based.

T3 sequence (P08684 whole entry): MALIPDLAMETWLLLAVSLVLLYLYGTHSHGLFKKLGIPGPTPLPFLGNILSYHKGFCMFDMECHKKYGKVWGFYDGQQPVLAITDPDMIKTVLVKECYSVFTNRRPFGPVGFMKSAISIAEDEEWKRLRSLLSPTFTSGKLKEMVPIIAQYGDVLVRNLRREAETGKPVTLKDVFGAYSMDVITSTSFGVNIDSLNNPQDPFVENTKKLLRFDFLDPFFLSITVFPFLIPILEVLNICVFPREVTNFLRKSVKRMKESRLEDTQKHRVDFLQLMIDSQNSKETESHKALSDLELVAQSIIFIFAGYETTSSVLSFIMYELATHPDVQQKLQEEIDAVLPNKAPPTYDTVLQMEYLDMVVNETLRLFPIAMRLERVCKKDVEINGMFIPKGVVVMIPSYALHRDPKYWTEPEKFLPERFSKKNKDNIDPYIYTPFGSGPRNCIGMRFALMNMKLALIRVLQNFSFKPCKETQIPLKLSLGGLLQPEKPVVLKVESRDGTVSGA
T5 sequence (Q14994 103-348 isoform Q14994-2 limits assumed, other chains not shown): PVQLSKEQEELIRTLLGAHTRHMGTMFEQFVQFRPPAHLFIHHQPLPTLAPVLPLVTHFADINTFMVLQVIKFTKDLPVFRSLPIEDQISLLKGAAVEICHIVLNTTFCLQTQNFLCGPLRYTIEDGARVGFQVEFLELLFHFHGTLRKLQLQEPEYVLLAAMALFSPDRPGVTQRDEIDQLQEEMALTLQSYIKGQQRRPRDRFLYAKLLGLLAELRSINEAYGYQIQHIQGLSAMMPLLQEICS
T4 sequence (Q92731 264-498 limits assumed): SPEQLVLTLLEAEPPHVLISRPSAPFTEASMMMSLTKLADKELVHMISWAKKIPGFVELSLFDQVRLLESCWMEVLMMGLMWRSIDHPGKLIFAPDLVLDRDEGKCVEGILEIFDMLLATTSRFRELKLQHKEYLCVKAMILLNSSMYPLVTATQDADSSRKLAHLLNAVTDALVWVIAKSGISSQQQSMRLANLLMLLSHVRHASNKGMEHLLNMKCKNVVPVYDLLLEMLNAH
T7 sequence (P11473 127-423 limits assumed): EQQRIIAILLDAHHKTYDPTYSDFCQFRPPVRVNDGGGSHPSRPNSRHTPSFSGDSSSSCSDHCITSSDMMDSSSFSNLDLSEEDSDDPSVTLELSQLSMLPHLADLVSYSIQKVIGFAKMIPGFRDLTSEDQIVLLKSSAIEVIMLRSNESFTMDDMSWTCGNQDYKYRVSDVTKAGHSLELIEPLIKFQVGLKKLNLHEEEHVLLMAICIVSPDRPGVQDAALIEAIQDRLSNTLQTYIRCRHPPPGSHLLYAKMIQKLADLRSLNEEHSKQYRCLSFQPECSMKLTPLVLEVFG
T1 sequence (Q96RI1 262-486 limits assumed): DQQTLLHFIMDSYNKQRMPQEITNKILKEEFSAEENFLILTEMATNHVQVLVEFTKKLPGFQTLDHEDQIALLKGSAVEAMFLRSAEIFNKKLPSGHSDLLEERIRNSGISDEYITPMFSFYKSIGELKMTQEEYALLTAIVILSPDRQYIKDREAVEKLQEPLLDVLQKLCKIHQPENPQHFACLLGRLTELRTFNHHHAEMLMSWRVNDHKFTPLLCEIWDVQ

For the compound `NC(=O)c1cc(Cn2cc(-c3c(-c4ccc(Cl)cc4)nc4cc(F)ccn34)nn2)ccc1Cl` [Example 93, 2-Chloro-5-((4-(2-(4-chlorophenyl)-7-fluoroimidazo[1,2-a]pyridin-3-yl)-1H-1,2,3-triazol-1-yl)methyl)benzamide], the “activation of farnesoid X receptor” value on farnesoid X receptor is “do not activate”. Moreover, the concentration for half-maximal inhibition (IC50) with HepG2 cells was above 30 µM; in data set [4] it was above 10 µM; in the data set on COS-1 cells, above 30 µM; against human CYP3A4 it was above 10 µM. Also, the EC50 at human CAR LBD was found to be 0.38 µM; in data set [7] it was 0.071 µM. Besides, the “CYP2B6 mRNA in HepaRG KO CAR cells” value in [1] is “not in HepaRG KO CAR cells”. Further, the “CYP2B6 mRNA in differentiated HepaRG cells” value in data set [2] was “upregulates; also recorded: up-regulation”. For the same compound, the “clinical signs of toxicity, Repeated Dose 7-day Oral Toxicity Study in Rats” value in data set [3] was “No significant clinical signs of toxicity”. Further, the “stability in human plasma” value in data set [5] was “stable”. Moreover, the “activation of estradion β receptor” value at estradion β receptor is listed as “do not activate”. In addition, the “Bioavailability (F) based on AUCp.o./AUCi.p. ratio” value in [6] (10 mg/kg, C57BL/6N mice) is given as 98.6%. In addition, in [6] (FIG. 6), the “delivery into the liver and bile” value was “excellent delivery into the liver and bile”. At CAR variant 3, the “CAR3 % of CITCO (1 μM) activity at 1 μM” value worked out at 83%. In addition, the “activation of vitamin D receptor” value at vitamin D receptor is listed as “do not activate”.
